Measured values reported in patent US8420820B2, “Pyrrolopyridinylpyrimidin-2-ylamine derivatives” (Merck Patent GmbH, priority 2008, dated 2013).

Key:
[1] = test system: PDK1 kinase activity in PC3 cells (phospho-T308-PKB); assay: Cellular testing of PDK1 kinase inhibitors in PC3 cells (Luminex, phospho-T308-PKB); type: cell-based; conditions: Homo sapiens, PC-3, 0.5 h, 30 min with test substance, serum-free, phospho-T308-PKB by Luminex, read-out: IC50 [PC3 P-PKB Thr308]
How it was run: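 Serum-starved PC3 cells treated 30 min with compound (7-point dilution); lysates captured on anti-total-PKB Luminex beads, with phospho-T308-PKB detected by antibody. Signals corrected by 10 μM staurosporine blank, expressed as percent of 0.3% DMSO control, giving IC50.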

A2780 (ovary) = assay: Tumour cell proliferation/vitality assay (Alamar Blue); type: cell-based; conditions: Homo sapiens, 96 h, A2780 cells, 4 days of cultivation with test substance
Experimental: In the present experiment description, the inhibition of tumour cell proliferation/tumour cell vitality by active ingredients is described.
The cells are sown in a suitable cell density in microtitre plates (96-well format) and the test substances are added in the form of a concentration series. After four further days of cultivation in serum-containing medium, the tumour cell proliferation/tumour cell vitality can be determined by means of an Alamar Blue test system.
The cells are cultivated in medium. At intervals of several days, the cells are detached from the culture dishes with the aid of trypsin solution and sown in suitable dilution in fresh medium. The cells are cultivated at 37° Celsius and 10% CO2.
A defined number of cells (for example 2000 cells) per culture/well in a volume of 180 μl of culture medium are sown in microtitre plates (96 well cell-culture plates) using a multichannel pipette. The cells are subsequently cultivated in a CO2 incubator (37° C. and 10% CO2).
The test substances are dissolved, for example, in DMSO and subsequently employed in corresponding concentration (if desired in a dilution series) in the cell culture medium. The dilution steps can be adapted depending on the efficiency of the active ingredients and the desired spread of the concentrations. Cell culture medium is added to the test substances in corresponding concentrations. The addition of the test substances to the cells can take place on the same day as the sowing of the cells. To this end, in each case 20 μl of substance solution from the predilution plate are added to the cultures/wells. The cells are cultivated for a further 4 days at 37° Celsius and 10% CO2.
In each case, 20 μl of Alamar Blue reagent are added per well, and the microtitre plates are incubated, for example, for a further seven hours in a CO2 incubator (at 37° C. and 10% CO2). The plates are measured in a reader with a fluorescence filter at a wavelength of 540 nm. The plates can be shaken gently immediately before the measurement.
The absorbance value of the medium control (no cells and test substances used) is subtracted from all other absorbance values. The controls (cells without test substance) are set equal to 100 percent, and all other absorbance values are set in relation thereto (for example in % of control):
IC50 values (50% inhibition) are determined with the aid of statistics programs, such as, for example, RS1.

PDK1 = target: T1, PDK1 (Homo sapiens, UniProt O15530); assay: Test for the inhibition of PDK1 (flashplate, 33P-ATP); type: biochemical; conditions: His6-PDK1 3.4 nM, 4 μM ATP, 30° C., 60 min
T1 construct: His6 (N)
T1 sequence (O15530 51-556): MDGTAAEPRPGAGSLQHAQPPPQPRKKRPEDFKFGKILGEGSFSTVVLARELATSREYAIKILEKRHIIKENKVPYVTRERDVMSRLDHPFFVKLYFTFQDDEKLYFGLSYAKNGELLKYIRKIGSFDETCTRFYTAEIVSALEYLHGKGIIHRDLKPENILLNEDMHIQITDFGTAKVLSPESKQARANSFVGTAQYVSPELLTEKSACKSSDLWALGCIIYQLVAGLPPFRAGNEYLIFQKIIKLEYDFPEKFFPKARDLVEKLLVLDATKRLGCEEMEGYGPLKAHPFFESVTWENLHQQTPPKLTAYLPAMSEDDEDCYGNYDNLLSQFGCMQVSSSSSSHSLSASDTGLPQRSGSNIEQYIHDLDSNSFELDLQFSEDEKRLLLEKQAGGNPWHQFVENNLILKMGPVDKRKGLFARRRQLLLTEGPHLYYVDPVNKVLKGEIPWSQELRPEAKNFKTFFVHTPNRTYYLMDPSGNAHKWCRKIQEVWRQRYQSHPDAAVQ
How it was run: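 His6-PDK1(1-50) at 3.4 nM with biotinylated peptide substrate (400 nM) and 4 μM ATP plus 33P-ATP, 60 min at 30° C. Incorporated radioactivity counted; blank from 100 nM staurosporin subtracted. Activity given as % of no-compound control; IC50 from dilution series.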

Row | SMILES | IC50 [1] [nM] | IC50 (A2780 (ovary)) [nM] | IC50 (PDK1) [nM]
1 | CCc1cc(-c2c[nH]c3ncc(-c4cnn(CCN5CCOCC5)c4)cc23)nc(N)n1 [Compound A8, 4-ethyl-6-{5-[1-(2-morpholin-4-ylethyl)-1H-pyrazol-4-yl]-1H-pyrrolo[2,3-b]pyridin-3-yl}pyrimidin-2-ylamine] | 1000 to 10000 | 1000 to 10000 | 10 to 1000
2 | CC(C)n1cc(-c2cnc3[nH]cc(-c4cc([C@](C)(O)c5ccccc5)nc(N)n4)c3c2)cn1 [Compound A123, (R)-1-{2-Amino-6-[5-(1-isopropyl-1H-pyrazol-4-yl)-1H-pyrrolo[2,3-b]pyridin-3-yl]pyrimidin-4-yl}-1-phenylethanol] | 10 to 1000 | 10 to 1000 | 10 to 1000
3 | CCC[C@@H](O)c1cc(-c2c[nH]c3ncc(-c4cnn(C(C)C)c4)cc23)nc(N)n1 [Compound A91, (R)-1-{2-Amino-6-[5-(1-isopropyl-1H-pyrazol-4-yl)-1H-pyrrolo[2,3-b]pyridin-3-yl]pyrimidin-4-yl}butan-1-ol] | 10 to 1000 | 10 to 1000 | 10 to 1000
4 | CC(C)n1cc(-c2cnc3[nH]cc(-c4cc(C(C)(O)c5ccccc5)nc(N)n4)c3c2)cn1 (stereo not drawn) [Compound A55, 1-{2-Amino-6-[5-(1-isopropyl-1H-pyrazol-4-yl)-1H-pyrrolo[2,3-b]pyridin-3-yl]-pyrimidin-4-yl}-1-phenylethanol] | 10 to 1000 | 10 to 1000 | 10 to 1000
5 | CCc1cc(-c2c[nH]c3ncc(-c4cnn(CCN5CCCC5)c4)cc23)nc(N)n1 [Compound A7, 4-ethyl-6-{5-[1-(2-pyrrolidin-1-ylethyl)-1H-pyrazol-4-yl]-1H-pyrrolo[2,3-b]pyridin-3-yl}pyrimidin-2-ylamine] | 10000 to 20000 | 10 to 1000 | 10 to 1000
6 | CCc1cc(-c2c[nH]c3ncc(-c4cnn(CCCN(C)C)c4)cc23)nc(N)n1 [Compound A4, 4-{5-[1-(3-dimethylaminopropyl)-1H-pyrazol-4-yl]-1H-pyrrolo[2,3-b]pyridin-3-yl}-6-ethylpyrimidin-2-ylamine] | 1000 to 10000 | 1000 to 10000 | 10 to 1000
7 | CCc1cc(-c2c[nH]c3ncc(-c4cnn(C5CCN(C)CC5)c4)cc23)nc(N)n1 [Compound A5, 4-ethyl-6-{5-[1-(1-methylpiperidin-4-yl)-1H-pyrazol-4-yl]-1H-pyrrolo[2,3-b]pyridin-3-yl}-pyrimidin-2-ylamine] | 1000 to 10000 | 10 to 1000 | 10 to 1000
8 | CCc1cc(-c2c[nH]c3ncc(-c4cnn(CCNC)c4)cc23)nc(N)n1 [Compound A3, 4-ethyl-6-{5-[1-(2-methylaminoethyl)-1H-pyrazol-4-yl]-1H-pyrrolo[2,3-b]pyridin-3-yl}pyrimidin-2-yl] | 10000 to 20000 | 10 to 1000 | 10 to 1000
9 | CC(C)C(O)c1cc(-c2c[nH]c3ncc(-c4cnn(C(C)C)c4)cc23)nc(N)n1 (stereo not drawn) [Compound A102, 1-{2-Amino-6-[5-(1-isopropyl-1H-pyrazol-4-yl)-1H-pyrrolo[2,3-b]pyridin-3-yl]-pyrimidin-4-yl}-2-methylpropan-1-ol] | 1000 to 10000 | 1000 to 10000 | 10 to 1000
10 | CCC(O)(c1ccccc1)c1cc(-c2c[nH]c3ncc(-c4cnn(C(C)C)c4)cc23)nc(N)n1 (stereo not drawn) [Compound A59, 1-{2-amino-6-[5-(1-isopropyl-1H-pyrazol-4-yl)-1H-pyrrolo[2,3-b]pyridin-3-yl]pyrimidin-4-yl}-1-phenylpropan-1-ol] | 10 to 1000 | 10 to 1000 | 10 to 1000
11 | CCC[C@H](O)c1cc(-c2c[nH]c3ncc(-c4cnn(C(C)C)c4)cc23)nc(N)n1 [Compound A90, (S)-1-{2-Amino-6-[5-(1-isopropyl-1H-pyrazol-4-yl)-1H-pyrrolo[2,3-b]pyridin-3-yl]pyrimidin-4-yl}butan-1-ol] | 1000 to 10000 | 10 to 1000 | 10 to 1000
12 | CCc1cc(-c2c[nH]c3ncc(-c4cnn(C5CCNCC5)c4)cc23)nc(N)n1 [Compound A6, 4-ethyl-6-[5-(1-piperidin-4-yl-1H-pyrazol-4-yl)-1H-pyrrolo[2,3-b]pyridin-3-yl]pyrimidin-2-ylamine] | 10000 to 20000 | 1000 to 10000 | 10 to 1000
13 | CCc1cc(-c2c[nH]c3ncc(-c4cnn(CC5CCCO5)c4)cc23)nc(N)n1 (stereo not drawn) [Compound A2, 4-ethyl-6-{5-[1-(tetrahydrofuran-2-ylmethyl)-1H-pyrazol-4-yl]-1H-pyrrolo[2,3-b]pyridin-3-yl}-pyrimidin-2-ylamine] | 10000 to 20000 | 10 to 1000 | 10 to 1000
